Reference: US10966426B2, “Herbicidal compositions comprising phenylpyrimidines” (BASF SE, priority 2016, dated 2021)

Assays:
Format in all cases: in vivo
Avena fatua [1] = assay: greenhouse pre-emergence treatment, AVEFA; settings: Avena fatua, 480 h, 20 DAT, AVEFA, metribuzin WG 70% solo 31.25 gai/ha
Outline: (§1)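 Damage rated on 0 to 100 scale (0 = normal growth, 100 = no emergence or total above-ground kill) after 2-4 weeks at species-dependent 10-25° C or 20-35° C. Seeds sown per species in loamy sand, ~3.0% humus, treated right after sowing with aqueous spray of single actives or 10% emulsion-concentrate mixtures, then hooded; additive expectation by Colby.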

Ambrosia elatior [2] = assay: greenhouse pre-emergence treatment, AMBEL; settings: Ambrosia artemisiifolia, 480 h, 20 DAT, AMBEL
Outline: as §1

Poa annua = assay: greenhouse post-emergence treatment, POAAN; settings: Poa annua, 480 h, 20 DAT, POAAN
Outline: (§2)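 Plants were grown in loamy sand with about 3.0% humus to 3–15 cm height, then sprayed with actives formulated as 10% by weight emulsion concentrates in water. Held at 10-25° C. or 20-35° C. by species for 2 to 4 weeks; damage scored 0 (none) to 100 (complete destruction).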

Alopecurus myosuroides = assay: greenhouse post-emergence treatment, ALOMY; settings: Alopecurus myosuroides, 480 h, 20 DAT, ALOMY
Outline: (§3)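 Plants were grown in pots of loamy sand with approximately 3.0% humus, either sown directly or transplanted as seedlings a few days before treatment, and sprayed with water-based treatments. They were kept at 10-25° C. or 20-35° C. depending on species and rated visually after 2 to 4 weeks on a 0–100 scale (100 = no emergence or complete destruction of above-ground parts).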

Avena fatua [3] = assay: greenhouse post-emergence treatment, AVEFA; settings: Avena fatua, 480 h, 20 DAT, AVEFA
Outline: as §3

Matricaria chamomilla = assay: greenhouse post-emergence treatment, MATCH; settings: Matricaria chamomilla, 480 h, 20 DAT, MATCH
Outline: (§4)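 Scale 0–100 damage rating (100 = complete destruction of above-ground parts, 0 = normal growth), read 2 to 4 weeks after post-emergence application of aqueous spray liquor to plants 3–15 cm tall.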

Lolium multiflorum = assay: greenhouse post-emergence treatment, LOLMU; settings: Lolium multiflorum, 480 h, solo, WG 70%, LOLMU, 20 DAT
Outline: as §3

Polygonum convolvulus = assay: greenhouse post-emergence treatment, POLCO; settings: Fallopia convolvulus, 480 h, 20 DAT, POLCO
Outline: as §4

Setaria viridis = assay: greenhouse post-emergence treatment, SETVI; settings: Setaria viridis, 480 h, solo, WG 70%, SETVI, 17.5 gai/ha, 20 DAT
Outline: as §3

Bromus sterilis = assay: greenhouse post-emergence treatment, BROST; settings: Bromus sterilis, 480 h, solo, WG 70%, BROST, 20 DAT
Outline: as §3

Brachiaria decumbens = assay: greenhouse post-emergence treatment, BRADC; settings: Urochloa decumbens, 480 h, 20 DAT, BRADC, metribuzin WG 70% solo 17.5 gai/ha
Outline: as §2

Ambrosia elatior [4] = assay: greenhouse post-emergence treatment, AMBEL; settings: 20 DAT, AMBEL; for % activity: solo, WG 70%
Outline: as §2

[5] = metribuzin WG 70% solo 17.5 gai/ha
[6] = metribuzin WG 70% solo 35 gai/ha
[7] = metribuzin WG 70% solo 70 gai/ha

`CSc1nnc(C(C)(C)C)c(=O)n1N` [metribuzin] showed an inhibition at 31.25 g/ha (Avena fatua [1]) of 30%, a percent weed control (herbicidal activity, 0-100 scale) at 250 g/ha (Ambrosia elatior [2]; metribuzin WG 70% solo 250 gai/ha) of 60% and a pest or weed control at 31.25 g/ha (Ambrosia elatior [2]; solo, WG 70%, 31.25 gai/ha) of 40%. It also gave a pest or weed control at 62.5 g/ha (Ambrosia elatior [2]; solo, WG 70%, 62.5 gai/ha) of 40%, a pest or weed control at 125 g/ha (Ambrosia elatior [2]; solo, WG 70%, 125 gai/ha) of 70% and an inhibition at 17.5 g/ha (Poa annua; [5]) of 60%. The inhibition at 35 g/ha (Poa annua; [6]) was 70%, the pest or weed control at 17.5 g/ha (Poa annua; solo, WG 70%, 17.5 gai/ha) was 60% and the inhibition at 17.5 g/ha (Alopecurus myosuroides; [5]) was 0%. It also gave an inhibition at 35 g/ha (Alopecurus myosuroides; metribuzin WG 70% solo 35 gai/ha, read-out: % activity) of 10%, a pest or weed control at 17.5 g/ha (Alopecurus myosuroides; solo, WG 70%, 17.5 gai/ha) of 0% and a pest or weed control at 35 g/ha (Alopecurus myosuroides; solo, WG 70%, 35 gai/ha) of 10%. It also gave an inhibition at 17.5 g/ha (Avena fatua [3]; [5]) of 5%, an inhibition at 35 g/ha (Avena fatua [3]; [6]) of 10% and an inhibition at 70 g/ha (Avena fatua [3]; [7]) of 40%. It also gave a pest or weed control at 17.5 g/ha (Avena fatua [3]; solo, WG 70%, 17.5 gai/ha) of 5%, a pest or weed control at 35 g/ha (Avena fatua [3]; solo, WG 70%, 35 gai/ha) of 10% and a pest or weed control at 70 g/ha (Avena fatua [3]; solo, WG 70%, 70 gai/ha) of 40%. For the same compound, the inhibition at 17.5 g/ha (Matricaria chamomilla; [5]) was 0%, the inhibition at 35 g/ha (Matricaria chamomilla; [6]) was 25% and the pest or weed control at 17.5 g/ha (Matricaria chamomilla; solo, WG 70%, 17.5 gai/ha) was 0%. For the same compound, the pest or weed control at 35 g/ha (Matricaria chamomilla; solo, WG 70%, 35 gai/ha) was 25%, the pest or weed control at 17.5 g/ha (Lolium multiflorum; 17.5 gai/ha) was 20% and the pest or weed control at 35 g/ha (Lolium multiflorum; 35 gai/ha) was 60%. The pest or weed control at 70 g/ha (Lolium multiflorum; 70 gai/ha) was 65%, the inhibition at 17.5 g/ha (Polygonum convolvulus; [5]) was 0% and the inhibition at 35 g/ha (Polygonum convolvulus; [6]) was 0%. It also gave an inhibition at 70 g/ha (Polygonum convolvulus; [7]) of 60%, an inhibition at 140 g/ha (Polygonum convolvulus; metribuzin WG 70% solo 140 gai/ha) of 70% and a pest or weed control at 17.5 g/ha (Setaria viridis) of 30%. It also gave a pest or weed control at 17.5 g/ha (Bromus sterilis; 17.5 gai/ha) of 25%, a pest or weed control at 35 g/ha (Bromus sterilis; 35 gai/ha) of 55% and an inhibition at 17.5 g/ha (Brachiaria decumbens) of 50%. For the same compound, the inhibition at 17.5 g/ha (Ambrosia elatior [4]; Ambrosia artemisiifolia, 480 h, metribuzin WG 70% solo 17.5 gai/ha) was 0%, the inhibition at 35 g/ha (Ambrosia elatior [4]; Ambrosia artemisiifolia, 480 h, metribuzin WG 70% solo 35 gai/ha) was 0% and the inhibition at 70 g/ha (Ambrosia elatior [4]; Ambrosia artemisiifolia, 480 h, metribuzin WG 70% solo 70 gai/ha) was 0%. For the same compound, the inhibition at 140 g/ha (Ambrosia elatior [4]; Ambrosia artemisiifolia, 480 h, metribuzin WG 70% solo 140 gai/ha) was 70%, the “% activity” value (Ambrosia elatior [4]; 17.5 gai/ha) was 0% and the “% activity” value (Ambrosia elatior [4]; 35 gai/ha) was 0%. For the same compound, the “% activity” value (Ambrosia elatior [4]; 70 gai/ha) was 0%.
